Entries after “also recorded” stand apart in the source; their conditions may differ. No end group written: not given here. Cy5.5 = Cy5.5 fluorescent label
Key:
H9C2 cells [1] = assay: FACS uptake of Cy5.5-labeled alanine-scan peptides in H9C2 cells; format: cell-based, rat; conditions: 10 μM peptide, 30 minutes at 37° C., FACS gated on live cells
Description: An alanine scan of the cardiac targeting peptide (CTP, APWHLSSQYSRT, SEQ ID NO: 3) was performed, in which each amino acid was replaced sequentially with alanine, resulting in 11 different “alanine mutant” versions of CTP. Solid phase peptide synthesis of the alanine mutants of CTP fluorescently labeled with Cyanine 5.5 (Cy5.5) was conducted using standard fluorenylmethoxycarbonyl protecting group organic synthesis (FMOC) conditions on a Liberty CEM Microwave Peptide Synthesizer. Cleavage of the fully-protected CTP peptide fragment from the 2-chlorotrityl solid support was accomplished using 1% Trifluoroacetic acid (TFA)/methylene chloride (DCM), followed by elution of the peptide using TFA+scavengers, followed by isolation of the crude product by precipitation in Diethyl Ether (EtO2). Fluorescent dye labelling of the N-terminal amine was performed in solution using Cy5.5-NHS (Lumiprobe, Inc). The resulting crude cyclic CTP-Cy5.5 peptide was purified by preparative C-5 Reversed Phase High Performance Liquid Chromatography (RP-HPLC) on a Waters Delta Prep 4000 chromatography system, using standard Acetonitrile/0.1% TFA gradient conditions. Analytical C-5 RP-HPLC characterization on a Waters Alliance chromatography system followed by Matrix-Assisted Laser Desorption/Ionization Time-Of-Flight Mass Spectrometry (MALDI-TOF-MS) analysis on an Applied Biosystems Voyager workstation was used to confirm the expected mass and purity of the final product. For the purposes of nomenclature, the CTP mutants are identified by the original amino acid followed by its numbered position and A to indicate alanine at the substituted position, e.g., R11A indicates arginine at position 11 of CTP substituted with alanine (APWHLSSQYSAT, SEQ ID NO: 2). CTP was also synthesized as a 6-amino acid N-terminal peptide (CTP-A, APWHLS, SEQ ID NO: 4), and as a 6-amino acid C-terminal peptide (CTP-B, SQYSRT, SEQ ID NO: 5).
For in vitro testing, a rat cardiomyoblast cell line, H9C2 was incubated with each of the alanine-scan peptides, including parental peptide CTP and variants CTP-A and CTP-B; each condition was run in triplicate. For the incubation, peptides were received as lyophilized powders and made into 10 mM stock solutions in DMSO. The stock solution was diluted in culture medium to a final concentration of 10 μM for each peptide, and incubated for 30 minutes at 37° C. with H9C2 cells. Following the incubation period, cells were washed extensively with PBS, trypsinized and fluorescence activated cell sorting (FACS) was performed in biological triplicates. […] There was almost a 3-4 fold increase in median fluorescence intensities compared with CTP for S7A peptide and R11A peptide (FIG. 1).

CD1 mice = assay: In vivo biodistribution of fluorescently labeled peptides in mice (IVIS ex vivo organ imaging, confocal microscopy); conditions: for cardiac uptake / uptake in lung epithelial tissue: 10 mg/kg intravenously, 15 minutes circulation, CD1 mice; for uptake in lung epithelial tissue: confocal and IVIS; for greater lung than liver uptake (lung-to-liver ratio of fluorescent intensity) / lung transduction at lower doses: S7A 5 mg/kg, R11A 5 and 1 mg/kg, 15 minutes, ex vivo IVIS; for lung transduction at lower doses: even at the lowest injected dose
Description: CTP-B, CTP-P2A, CTP-S7A, CTP-R11A and a random negative control peptide (RAN), were further tested in vivo in mice, in triplicate. Wild-type, 6-week old, male and female CD1 mice were weighed and anesthetized. Mice were injected intravenously with the various peptides, each at a dose of 10 mg/kg. Peptides circulated for 15 minutes, after which mice were euthanized and fixed with 3 ml of 10% formalin injected through the left ventricular apex. Multiple organs (heart, lungs, liver, kidney, spleen, brain, large intestines, small intestines, testes/ovaries, and eyeball) were harvested, placed in a 12-well plate, and immediately imaged using a Perkin-Elmer IVIS imaging system using the relevant excitation-emission laser/detector wavelengths. After the imaging was complete, organs were placed in 10% formalin at room temperature. Following overnight fixation in formalin, organs were transferred to 30% sucrose at 4° C. Following overnight incubation in sucrose, all organs were embedded and frozen in optical cutting medium, 10 μm thick sections were cut, mounted with DAPI, and cover-slipped. Slides were imaged using confocal fluorescent microscopy using the same parameters for imaging between mice, peptides and organs, to allow for comparison and quantification of fluorescence intensities in the relevant regions of interest.
Injections were repeated in a total of 9 CD1 mice with identical lung uptake; all images were acquired with the same confocal microscope parameters to allow for cross-animal comparison; however, at the same laser intensity, the lung sample was saturated. […] Wild-type mice were injected with Cy5.5 labeled R11A at a dose of 10 mg/kg, and euthanized mice after 15 minutes; multiple organs were then harvested for imaging.
Wild-type CD1 mice were then injected with lower doses of fluorescently labeled S7A peptide (5 mg/kg) or R11A peptide (5 and 1 mg/kg). The peptides were allowed to circulate for 15 minutes, mice were sacrificed, multiple organs were harvested, and ex vivo IVIS imaging was performed. Ex vivo imaging of organs harvested from mice without injected peptides was performed in order to subtract background auto-fluorescent signal from the test organs. IVIS imaging of multiple organs was conducted after administering decreasing doses of peptide from 5 to 1 mg/kg. […] Quantification of IVIS imaging for total fluorescent intensity for heart, lung, liver, kidney, spleen, and brain is shown in FIG. 4. Using the fluorescent intensity values, Lung-to-Liver ratios for both peptides were calculated at the tested doses.

[2] = test system: human bronchial epithelial cells from patients with Cystic Fibrosis (CF); assay: Confocal uptake in human bronchial epithelial cells from patients with Cystic Fibrosis; format: cell-based; conditions: for uptake by confocal microscopy: 10 μM, 0, 2, 10 or 30 minutes at 37° C./5% CO2, FIG. 6A; for quantification of fluorescence intensity (uptake): FIG. 6B
Description: Cells were grown on coverslips, incubated with 10 μM of S7A peptide, R11A peptide, or a random, negative control peptide, for 0, 2, 10, or 30 minutes at 37° C./5% CO2. Following incubation, cells were washed with prewarmed PBS, cross-stained with DAPI, fixed, and mounted on slides for confocal microscopy. […] In the time 0 and 2 minute timepoints, only the DAPI nuclear stain is visible, with cytoplasmic staining for the LTPs growing visible at 10 minutes and dominating the field of view at 30 minutes.

[3] = test system: human bronchial epithelial cells from patients with CF; assay: Uptake at 4° C with fluorescently labeled transferrin (Tf-488) in human bronchial epithelial cells from patients with CF; format: cell-based; conditions: for uptake relative to random peptide: 10 μM, 1 hour on ice at 4° C. then 37° C., times 0, 5 and 30 minutes; for energy dependence of internalization: occurred even at 4° C.
Description: To further characterize uptake of S7A peptide and R11A peptide in cells of interest, human bronchial epithelial cells from patients with CF were grown on cover-slips. Cells were starved at 37° C. for 1 hour in minimal media (MEM media+0.5% Bovine Serum Albumin (BS)+25 mM Hepes buffer at pH 7.4), washed with cold PBS, incubated on ice at 4° C. with fluorescently labeled transferrin (Tf-488) and 10 μM of test peptide (Random, S7A peptide, or R11A peptide) for 1 hour before being shifted to a 37° C. water-bath. Cover-slips were fixed at times 0, 5 and 30 minutes, with random peptide samples fixed only at 0 and 30 minutes.

H9C2 cells [4] = assay: Confocal microscopy of H9C2 cells transduced with linear or cyclic CTP; format: cell-based, rat; conditions: for Mean (fluorescence) / Subtraction (mean minus background fluorescence): transduced H9C2 cells, confocal quantification
Excerpt: The cardiac targeting peptide (CTP, SEQ ID NO: 3) was cyclized by establishing a chemical bond between the amino and carboxyl termini (between the alpha-amino group of N-terminal Lysine and the C-terminus of the peptide sequence), and subsequently labelled with a Cy5.5 fluorescent label at the epsilon amino group of the N-terminal lysine.
The cyclic form of CTP was then compared to the linear form of CTP using confocal microscopy of transduced H9C2 cells, using the protocol as described in Example 1 above. […] Quantification of the fluorescence intensity, as shown in FIG. 10B and Table 2, confirmed the enhanced fluorescent activity.

Row | Substance | uptake of the fluorescently labeled peptide into H9C2 cells as compared to full-length, parental CTP (H9C2 cells [1]) | cardiac uptake (CD1 mice) | uptake by confocal microscopy [2] | quantification of fluorescence intensity (uptake) ([2]; 10 μM) | uptake and fluorescence intensity compared between test peptides ([2]; 10 μM, confocal microscopy, FIG. 6A) | uptake relative to random peptide [3] | energy dependence of internalization [3] | uptake in lung epithelial tissue (CD1 mice) | greater lung than liver uptake (lung-to-liver ratio of fluorescent intensity) (CD1 mice) | lung transduction at lower doses (CD1 mice) | Mean (fluorescence) (H9C2 cells [4]) | Subtraction (mean minus background fluorescence) (H9C2 cells [4]) | uptake of cyclic format relative to linear format (H9C2 cells [4]; confocal imaging, FIG. 10A)
1 | AAWHLSSQYSRT [CTP-P2A] | statistically significantly higher uptake | results similar to what was predicted from in vitro H9C2 transduction | – | – | – | – | – | – | – | – | – | – | –
2 | APWHLSAQYSRT (also: Cy5.5 label, place not given here) [S7A, Lung-specific targeting peptide, alanine mutant of CTP; tested Cy5.5-labeled] | statistically significantly higher uptake | did not show significant cardiac uptake; also recorded: without significant cardiac uptake | robust uptake | significantly high uptake | higher uptake and fluorescence intensity even than R11A peptide | robust uptake | not energy-dependent | robust uptake | approximately 2.5 fold | Robust lung transduction | – | – | –
3 | APWHLSSQYSAT (also: Cy5.5 label, place not given here) [R11A, Lung-specific targeting peptide, alanine mutant of CTP; tested Cy5.5-labeled] | statistically significantly higher uptake | did not show significant cardiac uptake; also recorded: without significant cardiac uptake | robust uptake | significantly high uptake | – | robust uptake | not energy-dependent | Robust lung uptake | 8-9 fold | Robust lung transduction | – | – | –
4 | APWHLSSQYSRT [Linear CTP, cardiac targeting peptide described in WO2019226785A1, parental peptide, reference compound] | – | – | – | – | – | – | – | – | – | – | 362.478 | 134.777 | –
5 | KAPWHLSSQYSRT (cyclo(K(Cy5.5)APWHLSSQYSRT)) [Cyclic CTP, CTP cyclized via N-terminal lysine alpha-amino group to C-terminus, Cy5.5 at lysine epsilon amino group] | – | – | – | – | – | – | – | – | – | – | 521.590 | 371.123 | enhanced uptake relative to the linear format
6 | SQYSRT [CTP-B, 6-amino acid C-terminal peptide of CTP] | statistically significantly higher uptake | results similar to what was predicted from in vitro H9C2 transduction | – | – | – | – | – | – | – | – | – | – | –

From patent publication US12673972B2, “Lung-specific targeting-peptide (LTP), compositions, and uses thereof” (University of Pittsburgh—Of the Commonwealth System of …, priority 2019, dated 2026)
